“Also recorded” adds a separate entry of the source.
How the values were obtained:
ErbB2 promoter [1] = assay: Genomically integrated ErbB2 promoter-luciferase reporter screen in MCF/R06pGL-9 cells; type: cell-based, human; conditions: 24 h treatment
Protocol: Reporter activity was assayed as follows: From T-150 or T-75 culture flasks, about […] cells/well were plated into a 96 well plate format for high-throughput screening. 24 hours post plating a test agent e.g. a drug from a combinatorial library, was added to the wells at various concentrations. Certain wells were used as controls (e.g. PBS or DMSO vehicle only). Replicate wells ([…] per drug concentration) were run. 24 hours after addition of the test agent the cells were lysed, a luciferase reagent was added and activity in each well was read using a high-throughput screening plate reader (labsystems Fluoroskan). Parallel plates were run for cell viability using an MTT assay (Sigma).
A luciferase reporter plasmid (designated RO6pGL-luc) was constructed by inserting the ˜500 bp SmaI-SmaI fragment of the human ErbB2 proximal promoter (12) into the pGL3Basic plasmid driving a luciferase reporter gene, as has been described (10). R06pGL-luc and a plasmid expressing neomycin phosphotransferase were co-transfected into the MCF-7 cells (ATCC) using Effectene (Qiagen). Cells were selected for stable expression of luciferase and neomycin (G418)-resistance. […] The reaction was quantified by absorbance at 570 nm measured with a microplate reader (Molecular Devices) and the mean (±SD) optical density recorded after normalization by the vehicle treated controls. […]

ErbB2 promoter [2] = assay: Transiently transfected (episomal) RO6pGL ErbB2 promoter-reporter in MCF-7 cells; type: cell-based, human; conditions: transient transfection of RO6pGL into MCF-7 cells; 0.4 μM TSA, 24 hour
Protocol: FIGS. 11A and 11B show trichostatin A (TSA) responsiveness and DNase I hypersensitivity comparisons between the genomically integrated vs. episomally introduced ErbB2 promoter-reporter construct, RO6pGL, in MCF-7 cells. FIG. 11A: Luciferase activity (relative luminometer units) of the MCF/RO6pGL-9 subline compared to parental MCF-7 cells transiently transfected with the same ErbB2 promoter-reporter plasmid (RO6pGL) and after 24 hour treatment with 0.4 μM TSA, normalized against their respective non-treatment (vehicle only) control conditions. FIG. 11B: DNase 1 hypersensitivity analysis (described in Methods) of nuclei from MCF/RO6pGL-9 vs. MCF-7 cells transiently transfected with RO6pGL, following similar culture treatments with TSA.
In an episomal context and following transient transfection of the RO6pGL construct into MCF-7 cells, TSA produced diametrically opposite (>10-fold stimulatory) effects on this same ErbB2 promoter-driven reporter (FIG. 11). Southern blot comparisons of DNase I treated MCF/R06pGL-9 cell nuclei and those from transfected MCF-7 cells bearing the episomally introduced R06pGL plasmid confirmed the lack of a discrete DNase-I hypersensitivity site in the episomal R06pGL and the presence of such a site in the genomically integrated R06pGL, similar in location and intensity to that found within the endogenous ErbB2 promoter (FIG. 11). […]

[3] = test system: carcinogen-induced mammary cancer; conditions: up to 5 mg/kg, cited from earlier work
MCF/R06pGL-9 cells = assay: MTT cell viability assay on MCF/R06pGL-9 cells; type: cell-based, human
From the text: A luciferase reporter plasmid (designated RO6pGL-luc) was constructed by inserting the ˜500 bp SmaI-SmaI fragment of the human ErbB2 proximal promoter (12) into the pGL3Basic plasmid driving a luciferase reporter gene, as has been described (10). R06pGL-luc and a plasmid expressing neomycin phosphotransferase were co-transfected into the MCF-7 cells (ATCC) using Effectene (Qiagen). Cells were selected for stable expression of luciferase and neomycin (G418)-resistance. Single cell clones including MCF/R06pGL-9 were isolated and maintained in DME H-16 medium supplemented with 10% fetal bovine serum, 10 μg/ml insulin, 100 μg/ml penicillin/streptomycin, and 500 μg/ml G418. MTT cell viability and luciferase expression assays on the MCF/RO6pGL-9 sublime were performed after plating the subline into 96-well culture dishes at a density of 10^4 cells/well in 100 μL medium. After 24 hour cell plating, TSA from stock DMSO solution was diluted into 100 μL medium and then added into eight replicate wells at the indicated concentrations. […] The reaction was quantified by absorbance at 570 nm measured with a microplate reader (Molecular Devices) and the mean (±SD) optical density recorded after normalization by the vehicle treated controls. […]

CC(/C=C/C(=O)NO)=C\[C@@H](C)C(=O)c1ccc(N(C)C)cc1 [TSA, trichostatin A]
ErbB2 promoter-reporter (luciferase) activity (ErbB2 promoter [1]): significantly represses; also recorded: significant reduction of luciferase activity
effect on episomal ErbB2 promoter-driven reporter (stimulation) (ErbB2 promoter [2]): > 10 fold
ill effects ([3]; adult or embryonic mice): no ill effects
antitumor activity ([3]; ip, sc, carcinogen-induced mammary cancer): potent antitumor activity
cell viability (MTT assay) (MCF/R06pGL-9 cells; 24 hours exposure, TSA concentrations up to 50 μM): little impact on cell viability
cell viability (MTT assay) (MCF/R06pGL-9 cells; dose <1 μM, within 24 h): does not impair cell viability

Reference: patent US20120264159A1, “SCREENING SYSTEM FOR MODULATORS OF HER2 MEDIATED TRANSCRIPTION AND HER2 MODULATORS IDENTIFED THEREBY” (BUCK INSTITUTE FOR AGE RESEARCH, priority 2001, published 2012)
